The results in this text go back to ChEMBL document CHEMBL4673364, “Synthesis and cytotoxic activity of new 7-acetoxy-12-amino-14-deoxy andrographolide analogues” (Bioorg Med Chem Lett, 2021).

Each structure is given as a SMILES string.

In test [1] the test system is MCF7. Briefly: Cytotoxicity against human MCF7 cells assessed as reduction in cell viability by SRB assay. It counts as functional, cell-based. On the technique in general: The SRB assay estimates cell density from bound dye.
A short description of test [2]: Cytotoxicity against rat ASK cells assessed as reduction in cell viability by SRB assay. It counts as functional, cell-based.
For test [3], the system named is MCF7. Briefly: Potency index, ratio of andrographolide IC50 to test compound IC50 for cytotoxicity against human MCF7 cells. It counts as functional.
A further test has as its system A549. Kind of test: Cytotoxicity against human A549 cells assessed as reduction in cell viability by SRB assay. It counts as functional, cell-based.
The nature of test [4]: Cytotoxicity against human K055 cells assessed as reduction in cell viability by SRB assay. It counts as functional, cell-based.
A further test concerns KB. Briefly: Cytotoxicity against human KB cells assessed as reduction in cell viability by SRB assay. It counts as functional, cell-based.
Test [5] can be described thus: Cytotoxicity against human K213 cells assessed as reduction in cell viability by SRB assay. It counts as functional, cell-based.
The test system of another test is HT-29. Briefly: Cytotoxicity against human HT-29 cells assessed as reduction in cell viability by SRB assay. It counts as functional, cell-based.
Test [6] in a line: Cytotoxicity against human P388 cells assessed as reduction in cell viability by SRB assay. It counts as functional, cell-based.

As for `C=C1[C@@H](OC(C)=O)C[C@@H]2[C@](C)(CO[Si](C)(C)C(C)(C)C)[C@H](OC(C)=O)CC[C@@]2(C)[C@@H]1C[C@@H](Nc1ccccc1F)C1=CCOC1=O`, the IC50 came to 2.93 µM in the test with MCF7 [1]; 3.69 µM in [2]; 3.19 µM in the test with A549; 5.19 µM in test [4]; 4.74 µM in the test with KB; 5.45 µM in test [5]. In addition, the values for the IC50 (in the test on HT-29; in test [6]) were 3.71 µM and 3.14 µM, respectively. Further, the “Ratio IC50” value in the test with MCF7 [3] came to 7.
Regarding `C=C1[C@@H](OC(C)=O)C[C@@H]2[C@](C)(CO[Si](C)(C)C(C)(C)C)[C@H](OC(C)=O)CC[C@@]2(C)[C@@H]1C[C@@H](Nc1cccc(F)c1)C1=CCOC1=O`, the IC50 with MCF7 [1] came out at 3.82 µM; in test [2] it was 3.7 µM; with A549 it was 4.06 µM; in test [4] it was 5.41 µM; in the test with KB, 4.56 µM; in test [5], 5.28 µM. Moreover, the values for the IC50 (with HT-29; in test [6]) were 4.52 µM and 2.81 µM, respectively. In the test on MCF7 [3], the “Ratio IC50” value was 7.
As for `C=C1[C@@H](OC(C)=O)C[C@@H]2[C@](C)(CO[Si](C)(C)C(C)(C)C)[C@H](OC(C)=O)CC[C@@]2(C)[C@@H]1C[C@@H](Nc1ccc(F)cc1)C1=CCOC1=O`, the IC50 came out at 4.34 µM in the test with MCF7 [1]; 4.63 µM in test [2]; 4.55 µM in the test with A549; 5.43 µM in test [4]; 5.09 µM in the test with KB; 5.25 µM in test [5]. Besides, the IC50 was determined as 4.94 µM with HT-29 and 4 µM in test [6]. Further, the “Ratio IC50” value with MCF7 [3] stood at 7.
In the case of `C=C1[C@@H](OC(C)=O)C[C@@H]2[C@](C)(CO[Si](C)(C)C(C)(C)C)[C@H](OC(C)=O)CC[C@@]2(C)[C@@H]1C[C@@H](Nc1ccc(Br)cc1)C1=CCOC1=O`, the IC50 turned out to be 3.92 µM in the test with MCF7 [1]; 4.84 µM in test [2]; 4.15 µM in the test on A549; 5.34 µM in [4]; 5.23 µM with KB; 5.44 µM in test [5]. The figures for the IC50 (in the test on HT-29; in [6]) were 4.59 µM and 4.19 µM, respectively. Besides, in the test with MCF7 [3], the “Ratio IC50” value is 7.
On to `C=C1[C@@H](OC(C)=O)C[C@@H]2[C@](C)(CO[Si](C)(C)C(C)(C)C)[C@H](OC(C)=O)CC[C@@]2(C)[C@@H]1C[C@@H](Nc1ccccc1C(=O)O)C1=CCOC1=O`, for which the IC50 in the test with MCF7 [1] turned out to be 4.46 µM; in test [2], 4.31 µM; with A549, 4.89 µM; in test [4] it was 5.64 µM; in the test with KB it was 6.05 µM; in test [5], 5.91 µM. Also, the IC50 with HT-29 was found to be 5.34 µM; in [6] it was 4.31 µM. Besides, the “Ratio IC50” value with MCF7 [3] worked out at 7.
Turning to `C=C1[C@@H](OC(C)=O)C[C@@H]2[C@](C)(CO[Si](C)(C)C(C)(C)C)[C@H](OC(C)=O)CC[C@@]2(C)[C@@H]1C[C@@H](Nc1ccc(C(=O)O)cc1)C1=CCOC1=O`, the IC50 in the test on MCF7 [1] was determined as 3.99 µM; in [2], 4.31 µM; with A549, 4.21 µM; in test [4], 4.88 µM; in the test on KB it was 5.54 µM; in test [5], 6.75 µM. Moreover, the IC50 was 4.63 µM in the test with HT-29 and 4.18 µM in test [6]. Also, the “Ratio IC50” value in the test on MCF7 [3] is 7.
Turning to `C=C1[C@@H](OC(C)=O)C[C@@H]2[C@](C)(COC=O)[C@H](OC(C)=O)CC[C@@]2(C)[C@@H]1C[C@@H](Nc1cccc(F)c1)C1=CCOC1=O`, the IC50 worked out at 14.1 µM in the test on MCF7 [1]; 35.8 µM in test [2]; 23.2 µM in the test with A549; 29.2 µM in test [4]; 28.6 µM with KB; 27.2 µM in test [5]. Also, the 50% inhibitory concentration (IC50) in the test with HT-29 turned out to be 9.41 µM; in test [6], 5.53 µM.
For `C=C1[C@@H](OC(C)=O)C[C@@H]2[C@](C)(COC=O)[C@H](OC(C)=O)CC[C@@]2(C)[C@@H]1C[C@@H](Nc1ccc(OC)c(OC)c1)C1=CCOC1=O`, the IC50 with MCF7 [1] is over 50 µM; in test [2] it was over 50 µM; in the test on A549, over 50 µM; in test [4], 48.2 µM; in the test with KB, over 50 µM; in test [5] it was over 50 µM. In addition, the results for the IC50 (in the test on HT-29; in [6]) were 42.8 µM and 25.8 µM, respectively.

As usually defined, the IC50 is the concentration at which inhibition is half-maximal.
